{"source": "patent US9902794B2", "about": "“Curable composition, optical component and compound” (FUJIFILM Corporation, priority 2014, dated 2018)", "assay": "Solvent solubility evaluation of aromatic ring-containing compound in PGMEA", "format": "physicochemical", "conditions": "1 g compound and 1 mL PGMEA stirred for 24 hours at 25° C.", "experimental": "<Solvent Solubility Evaluation>\n1 g of an aromatic ring-containing compound and 1 mL of propylene glycol monomethyl ether acetate (PGMEA) were stirred for 24 hours at 25° C. and then the aromatic ring-containing compound was mixed with PGMEA uniformly and evaluated by the following criteria.\nA: 50% by mass or more of an aromatic ring-containing compound were dissolved in PGMEA.\nB: 30% by mass or more and less than 50% by mass of an aromatic ring-containing compound were dissolved in PGMEA.\nC: 5% by mass or more and less than 30% by mass of an aromatic ring-containing compound were dissolved in PGMEA.\nD: The amount of an aromatic ring-containing compound dissolved in PGMEA was less than 5% by mass.\nThe solvent solubility of an aromatic ring-containing compound was measured in the same manner as described above."}
{"compound": "C=CC(=O)OCCOc1ccc2nc(-c3ccc(C4(c5ccc(-c6nc7ccc(OCCOC(=O)C=C)cc7s6)cc5)c5ccccc5-c5ccccc54)cc3)sc2c1", "note": "[Compound 3]", "values": [{"measurement": "Solvent solubility evaluation", "result": "A (50% by mass or more of an aromatic ring-containing compound were dissolved in PGMEA)"}]}
{"compound": "C=CC(=O)OCCOc1ccc(-c2ccc3nc(C4(c5nc6ccc(-c7ccc(OCCOC(=O)C=C)cc7)cc6s5)c5ccccc5-c5cc6ccccc6cc54)sc3c2)cc1", "note": "[Compound 4]", "values": [{"measurement": "Solvent solubility evaluation", "result": "A (50% by mass or more of an aromatic ring-containing compound were dissolved in PGMEA)"}]}
{"compound": "C=CC(=O)OCCOc1ccc(C2(c3ccc4sc(-c5ccc6cc(OCCOC(=O)C=C)ccc6c5)nc4c3)c3ccccc3-c3cc4ccccc4cc32)cc1", "note": "(stereo not drawn) [Compound J]", "values": [{"measurement": "Solvent solubility evaluation", "result": "A (50% by mass or more of an aromatic ring-containing compound were dissolved in PGMEA)"}]}
{"compound": "C=CC(=O)OCCOc1ccc2cc(C3(c4ccc(OCCOC(=O)C=C)c(-c5nc6ccccc6s5)c4)c4ccccc4-c4cc5ccccc5cc43)ccc2c1", "note": "(stereo not drawn) [Compound E]", "values": [{"measurement": "Solvent solubility evaluation", "result": "A (50% by mass or more of an aromatic ring-containing compound were dissolved in PGMEA)"}]}
{"compound": "C=CC(=O)OCCOc1ccc(-c2ccc(C3(c4ccc(OCCOC(=O)C=C)cc4)c4ccccc4-c4cc5sc(-c6ccccc6)nc5cc43)cc2)cc1", "note": "(stereo not drawn) [Compound C]", "values": [{"measurement": "Solvent solubility evaluation", "result": "B (30% by mass or more and less than 50% by mass of an aromatic ring-containing compound were dissolved in PGMEA)"}]}
{"compound": "C=CC(=O)OCCOc1ccc(-c2nc3cc(C4(c5ccc6oc(-c7ccc(OCCOC(=O)C=C)cc7)nc6c5)c5ccccc5-c5cc6ccccc6cc54)ccc3o2)cc1", "note": "[Compound H]", "values": [{"measurement": "Solvent solubility evaluation", "result": "B (30% by mass or more and less than 50% by mass of an aromatic ring-containing compound were dissolved in PGMEA)"}]}
{"compound": "C=CC(=O)OCCOc1ccc2c(c1)C(c1ccc(-c3nc4ccccc4o3)cc1)(c1ccc3cc(OCCOC(=O)C=C)ccc3c1)c1cc3ccccc3cc1-2", "note": "(stereo not drawn) [Compound D]", "values": [{"measurement": "Solvent solubility evaluation", "result": "B (30% by mass or more and less than 50% by mass of an aromatic ring-containing compound were dissolved in PGMEA)"}]}
{"compound": "C=CC(=O)OCCOc1ccc(-c2nc3cc(C(c4ccccc4)(c4ccccc4)c4ccc5sc(-c6ccc(OCCOC(=O)C=C)cc6)nc5c4)ccc3s2)cc1", "note": "[Compound A]", "values": [{"measurement": "Solvent solubility evaluation", "result": "B (30% by mass or more and less than 50% by mass of an aromatic ring-containing compound were dissolved in PGMEA)"}]}
{"compound": "C=CC(=O)OCCOc1ccc(C2(c3ccc(OCCOC(=O)C=C)cc3)c3ccccc3-c3ccccc32)cc1", "note": "[Comparative Compound 1, reference compound]", "values": [{"measurement": "Solvent solubility evaluation", "result": "C (5% by mass or more and less than 30% by mass of an aromatic ring-containing compound were dissolved in PGMEA)"}]}
{"compound": "C=CC(=O)OCCOc1ccc2nc(C3(c4nc5ccc(OCCOC(=O)C=C)cc5s4)c4ccccc4-c4ccccc43)sc2c1", "note": "[Compound I]", "values": [{"measurement": "Solvent solubility evaluation", "result": "A (50% by mass or more of an aromatic ring-containing compound were dissolved in PGMEA)"}]}
{"compound": "C=CC(=O)OCCOc1ccc(-c2nc3ccc(C4(c5ccc6nc(-c7ccc(OCCOC(=O)C=C)cc7)sc6c5)c5ccccc5-c5cc6ccccc6cc54)cc3s2)cc1", "note": "[Compound 9]", "values": [{"measurement": "Solvent solubility evaluation", "result": "A (50% by mass or more of an aromatic ring-containing compound were dissolved in PGMEA)"}]}
{"compound": "C=CC(=O)OCCOc1ccc2cc(-c3ccc4nc(C5(c6nc7ccc(-c8ccc9cc(OCCOC(=O)C=C)ccc9c8)cc7s6)c6ccccc6-c6cc7ccccc7cc65)sc4c3)ccc2c1", "note": "[Compound 5]", "values": [{"measurement": "Solvent solubility evaluation", "result": "A (50% by mass or more of an aromatic ring-containing compound were dissolved in PGMEA)"}]}
{"compound": "C=CC(=O)OCCOc1ccc2c(c1)-c1cc3ccccc3cc1C2(c1ccc(-c2nc3ccccc3s2)cc1)c1ccc(OCCOC(=O)C=C)c2ccccc12", "note": "(stereo not drawn) [Compound 2]", "values": [{"measurement": "Solvent solubility evaluation", "result": "A (50% by mass or more of an aromatic ring-containing compound were dissolved in PGMEA)"}]}
{"compound": "C=CC(=O)OCCOc1ccc(C2(c3ccc4sc(-c5ccccc5)nc4c3)c3ccccc3-c3cc(OCCOC(=O)C=C)ccc32)cc1", "note": "(stereo not drawn) [Compound F]", "values": [{"measurement": "Solvent solubility evaluation", "result": "B (30% by mass or more and less than 50% by mass of an aromatic ring-containing compound were dissolved in PGMEA)"}]}
{"compound": "C=CC(=O)OCCOc1ccc2cc(-c3nc4ccc(C5(c6ccc7nc(-c8ccc9cc(OCCOC(=O)C=C)ccc9c8)sc7c6)c6ccccc6-c6ccccc65)cc4s3)ccc2c1", "note": "[Compound 8]", "values": [{"measurement": "Solvent solubility evaluation", "result": "A (50% by mass or more of an aromatic ring-containing compound were dissolved in PGMEA)"}]}
{"compound": "C=CC(=O)OCCOc1ccc2c(c1)-c1cc3ccccc3cc1C2(c1ccc(-c2nc3ccccc3s2)cc1)c1ccc2cc(OCCOC(=O)C=C)ccc2c1", "note": "(stereo not drawn) [Compound 1]", "values": [{"measurement": "Solvent solubility evaluation", "result": "A (50% by mass or more of an aromatic ring-containing compound were dissolved in PGMEA)"}]}
{"compound": "C=CC(=O)OCCOc1ccc(-c2nc3ccc(C4(c5ccc6nc(-c7ccc(OCCOC(=O)C=C)cc7)sc6c5)c5ccccc5-c5ccccc54)cc3s2)cc1", "note": "[Compound 7]", "values": [{"measurement": "Solvent solubility evaluation", "result": "A (50% by mass or more of an aromatic ring-containing compound were dissolved in PGMEA)"}]}
{"compound": "C=CC(=O)OCCOc1ccc2c(c1)-c1cc(OCCOC(=O)C=C)ccc1C2(c1ccc2nc(-c3ccccc3)sc2c1)c1ccc2nc(-c3ccccc3)sc2c1", "note": "[Compound B]", "values": [{"measurement": "Solvent solubility evaluation", "result": "B (30% by mass or more and less than 50% by mass of an aromatic ring-containing compound were dissolved in PGMEA)"}]}
{"compound": "C=CC(=O)OCCOc1ccc2nc(-c3ccc(C4(c5ccc(-c6nc7ccc(OCCOC(=O)C=C)cc7s6)cc5)c5ccccc5-c5cc6ccccc6cc54)cc3)sc2c1", "note": "[Compound 6]", "values": [{"measurement": "Solvent solubility evaluation", "result": "A (50% by mass or more of an aromatic ring-containing compound were dissolved in PGMEA)"}]}
{"compound": "C=CC(=O)OCCOc1ccc2cc(-c3nc4ccc(C5(c6ccc7nc(-c8ccc9cc(OCCOC(=O)C=C)ccc9c8)sc7c6)c6ccccc6-c6cc7ccccc7cc65)cc4s3)ccc2c1", "note": "[Compound 10]", "values": [{"measurement": "Solvent solubility evaluation", "result": "A (50% by mass or more of an aromatic ring-containing compound were dissolved in PGMEA)"}]}
{"compound": "C=CC(=O)OCCOc1ccc(C2(c3ccc(OCCOC(=O)C=C)cc3)c3ccccc3-c3cc4sc(-c5ccccc5)nc4cc32)cc1", "note": "[Compound G]", "values": [{"measurement": "Solvent solubility evaluation", "result": "B (30% by mass or more and less than 50% by mass of an aromatic ring-containing compound were dissolved in PGMEA)"}]}
